Data taken from ChEMBL document CHEMBL2073973, “Mitotracker green is a P-glycoprotein substrate” (Biosci Rep, 2003).

Target: ATP-dependent translocase ABCB1 (Homo sapiens, UniProt P08183)
Test: TP_TRANSPORTER: cell accumulation in Lucena-1 cells
Assay type: functional, cell-based

Chain of ATP-dependent translocase ABCB1 (P08183 whole entry): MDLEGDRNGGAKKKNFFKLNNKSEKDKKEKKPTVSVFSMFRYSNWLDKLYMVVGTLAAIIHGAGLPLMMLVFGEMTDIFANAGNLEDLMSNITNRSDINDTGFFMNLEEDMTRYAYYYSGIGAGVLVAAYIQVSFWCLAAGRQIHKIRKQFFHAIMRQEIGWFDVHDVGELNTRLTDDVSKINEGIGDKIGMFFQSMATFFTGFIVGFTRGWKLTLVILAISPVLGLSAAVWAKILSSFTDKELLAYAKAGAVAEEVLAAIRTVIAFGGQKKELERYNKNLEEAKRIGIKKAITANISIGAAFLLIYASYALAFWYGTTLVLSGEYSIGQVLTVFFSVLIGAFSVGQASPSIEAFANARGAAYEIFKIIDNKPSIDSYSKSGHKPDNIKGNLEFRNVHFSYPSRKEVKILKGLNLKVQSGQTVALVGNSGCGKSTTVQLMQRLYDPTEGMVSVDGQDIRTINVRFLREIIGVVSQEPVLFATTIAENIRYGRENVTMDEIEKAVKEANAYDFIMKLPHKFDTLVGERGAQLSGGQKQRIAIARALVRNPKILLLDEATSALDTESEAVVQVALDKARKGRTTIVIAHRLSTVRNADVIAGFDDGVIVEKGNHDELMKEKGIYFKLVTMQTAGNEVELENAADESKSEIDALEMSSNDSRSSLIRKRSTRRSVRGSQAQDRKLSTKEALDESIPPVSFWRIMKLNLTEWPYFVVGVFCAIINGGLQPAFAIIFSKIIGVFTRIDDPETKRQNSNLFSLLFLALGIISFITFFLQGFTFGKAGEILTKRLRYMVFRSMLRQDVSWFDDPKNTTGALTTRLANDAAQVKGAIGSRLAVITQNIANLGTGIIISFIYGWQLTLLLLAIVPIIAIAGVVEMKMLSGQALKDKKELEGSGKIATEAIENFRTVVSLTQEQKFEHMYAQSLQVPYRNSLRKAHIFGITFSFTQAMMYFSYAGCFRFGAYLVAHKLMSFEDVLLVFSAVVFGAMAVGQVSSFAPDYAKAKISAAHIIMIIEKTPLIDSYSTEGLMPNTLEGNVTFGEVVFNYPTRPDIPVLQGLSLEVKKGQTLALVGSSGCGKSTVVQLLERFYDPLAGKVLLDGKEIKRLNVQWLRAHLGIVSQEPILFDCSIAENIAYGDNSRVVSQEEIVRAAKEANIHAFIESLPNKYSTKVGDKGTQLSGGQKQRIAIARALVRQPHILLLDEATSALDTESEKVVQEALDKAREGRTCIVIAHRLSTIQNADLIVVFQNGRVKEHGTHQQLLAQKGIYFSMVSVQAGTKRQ

Activity: substrate [+]
Structure (SMILES): CN1C(=CC=Cc2n(Cc3ccc(CCl)cc3)c3cc(Cl)c(Cl)cc3[n+]2Cc2ccc(CCl)cc2)Oc2ccccc21.[Cl-] [MITOTRACKER GREEN]
